Reference: patent US20070203233A1, “NOVEL 2-(alpha-N-PENTANONYL)BENZOATES, THEIR PREPARATION AND USE” (priority 2004, published 2007)
Marks after values point to notes of the source that are not given here.

What was measured:
[1] = system: thrombus of artery-vein bypass in rats; assay: Effects on thrombosis of artery-vein bypass in rats; type: in vivo, SD rats; conditions: for Dry-weight of thrombus / Wet-weight of thrombus: once per day for 3 days; for Inhibition (%) of dry-weight of thrombus / Inhibition (%) of wet-weight of thrombus: vs. thrombus model group
Method: Testing methods are described in Chen-Qi, “Methodology for Pharmacological Research of Chinese Medicine”,People's Medical Publishing House, Sep. 1993, 1st ed., page 510. […] Equivalent amount of the vehicle was administered to the thrombus model group. The operation was conducted immediately after the final administration. […] The operation was conducted to separate the right common carotid artery and the left external jugular vein. A pre-weighed suture # 0 of 8 cm long was placed into the middle part of a polyethylene tube of 10 cm long. Then the tube was filled with normal saline, and connected at both ends to the cannula of 3 cm long filled with normal saline. One end of the tube was inserted into the left external jugular vein, and another end was inserted into the right common carotid artery. The blood flowed from the right common carotid artery to the polyethylene tube, and then flow back to the left external jugular vein, so as to construct a bypass circulation. […] The wet-weight of the thrombus was obtained by subtracting the weight of the suture and the paper from this total wet weight. […] The thrombus was taken out and weighed to obtain a total dry weight. The dry weight of the thrombus was obtained by subtracting the weight of the suture and the paper form this total dry weight. The results in each group were compared by student's t test. […] Testing Results

[2] = Thermal Stability; type: physicochemical; conditions: 60° C., 10 days, HPLC
[3] = system: model rats of middle cerebral artery thrombosis (MCAT); assay: Effects on neural symptoms of MCAT rats; type: in vivo, SD rats; parameters: key to Scores 6 hours / Scores 24 hours: 0/1 per test, summed (max 4); higher = more severe behavioral disorder; conditions: for Scores 6 hours: behavioral score 6 h after operation (full mark 4); for Scores 24 hours: behavioral score 24 h after operation (full mark 4)
Method: (1) Grouping and administration: […] Preventive administration was conducted by gavage one time per day for 3 days prior to the model being established. The model was established on day 4, and a dosage of one day was administered by gavage immediately after the model was established. Another dosage of one day was again administered by gavage 12 hours after the model was established. Equivalent amount of the vehicle was administered to the control group. […] Description of technique and early neuropathological consequences following middle cerebral artery occlusion. J Cereb Blood Flow Metab, 1981, 1: 53), and fixed in lateral decubitus position. A bowtype incision of 1.5 cm long was made at the midpoint between canthus and exterior auditory canal. Temporalis was broken and incised to expose temporal bone. […] The filter paper was removed after 30 min when the vascular became black. The localized tissue was washed with physiological brine, and sutured layer by layer. Then rats were placed back into the cages. By following the modified method of Bederson et al. […] (2) The animals were placed onto a smooth ground, and the resistance of contralateral shoulder to push was examined. “0” was recorded if the resistance of both shoulders were equal and strong; and “1” was recorded if the resistance of contralateral shoulder to push was decreased. […] (4) The tail of the rat was lifted 30 cm high away from the ground, and “1” was recorded if the animals ceaselessly circled contralaterally. “4” was full mark in accordance with the above-mentioned standard. The higher the score was, more severe the behavioral disorder of the animal was. 4. Results: The behavioral scores in each group were compared by student t test.

[4] = system: model rats of middle cerebral artery thrombosis (MCAT); assay: Effects on cerebral infarct area of MCAT rats; type: in vivo, SD rats; conditions: for Cerebral infarct tissue weight/total brain weight (%): 24 h after operation, TTC staining; for Inhibition (%): cerebral infarct vs. model group; for cerebral infarct as compared with the model group (in words): 50 mg/kg, P<0.05
[5] = The Stability to Light; type: physicochemical; conditions: 10 days, HPLC
[6] = The Stability of Aqueous Solution; conditions: for wt % decomposed product: aqueous solution 0.2 mg/ml; for decomposed product detected (in words): after exposed to water for 24 hours
Method: Compounds were dissolved in water to form aqueous solutions in a concentration of 0.2 mg/ml, and the amount of decomposed products were measured.
The amounts of decomposed products were determined in accordance with the test described in Pharmacopoeia of P.R. China, 2000 edition, appendix VD of part two, by HPLC method, C18 column, mobile phase of acetonitrile:0.02M sodium dihydrogen phosphate=40:60, detecting wavelength of 230 nm, flow rate of 1 ml/min.

[7] = The Stability to Humidity (high humidity test); type: physicochemical; conditions: 10 days, HPLC purity
[8] = 50 mg/kg by gavage, vs. model group
[9] = 100 mg/kg by gavage, vs. model group
[10] = 200 mg/kg by gavage, vs. model group

Compound	decomposed product detected, thermal stability (in words) [2]	Scores 6 hours ([3]; 50 mg/kg by gavage)	Scores 24 hours ([3]; 50 mg/kg by gavage)	% inhibition at hour 24 [3, 8] [%]	Scores 6 hours ([3]; 100 mg/kg by gavage)	Scores 24 hours ([3]; 100 mg/kg by gavage)	% inhibition at hour 24 [3, 9] [%]	Scores 6 hours ([3]; 200 mg/kg by gavage)	Scores 24 hours ([3]; 200 mg/kg by gavage)	% inhibition at hour 24 [3, 10] [%]	Cerebral infarct tissue weight/total brain weight (%) ([4]; 50 mg/kg by gavage)	Inhibition (%) ([4]; 50 mg/kg by gavage)	cerebral infarct as compared with the model group (in words) [4]	Cerebral infarct tissue weight/total brain weight (%) ([4]; 100 mg/kg by gavage)	Inhibition (%) ([4]; 100 mg/kg by gavage)	Cerebral infarct tissue weight/total brain weight (%) ([4]; 200 mg/kg by gavage)	Inhibition (%) ([4]; 200 mg/kg by gavage)	decomposed product detected, stability to light (in words) [5]	wt % decomposed product ([6]; 0 hr) [wt %]	wt % decomposed product ([6]; 1 hr) [wt %]	also measured
CCCCC(=O)c1ccccc1C(=O)O.CCCCC(=O)c1ccccc1C(=O)O.c1ccc(CNCCNCc2ccccc2)cc1 [2-(α-n-pentanonyl)benzoate of N,N′-dibenzylethylene diamine]	no decomposed product	3.45 ± 0.69	2.91 ± 0.70	20.05	3.45 ± 0.52	2.36 ± 0.67	36.73	3.27 ± 0.79	2.55 ± 0.52	31.64	5.14 ± 2.17	30.63	significantly reduced	4.68 ± 1.69	41.06	4.60 ± 1.26	39.55	no decomposed product			Dry-weight of thrombus ([1]; 50 mg/kg by gavage): 39.0 ± 10.8 mg; Wet-weight of thrombus ([1]; 50 mg/kg by gavage): 207.1 ± 45.3 mg; Inhibition (%) of dry-weight of thrombus ([1]; 50 mg/kg by gavage): 23.98%; Inhibition (%) of wet-weight of thrombus ([1]; 50 mg/kg by gavage): 20.10%; Dry-weight of thrombus ([1]; 100 mg/kg by gavage): 29.9 ± 13.6 mg; Wet-weight of thrombus ([1]; 100 mg/kg by gavage): 157.9 ± 67.9 mg; Inhibition (%) of dry-weight of thrombus ([1]; 100 mg/kg by gavage): 41.72%; Inhibition (%) of wet-weight of thrombus ([1]; 100 mg/kg by gavage): 39.08%; Dry-weight of thrombus ([1]; 200 mg/kg by gavage): 32.3 ± 12.5 mg; Wet-weight of thrombus ([1]; 200 mg/kg by gavage): 191.7 ± 34.8 mg; Inhibition (%) of dry-weight of thrombus ([1]; 200 mg/kg by gavage): 37.04%; Inhibition (%) of wet-weight of thrombus ([1]; 200 mg/kg by gavage): 26.04%
CCCCC(O)c1ccccc1C(=O)[O-].[K+] (stereo not drawn) [Potassium 2-(α-hydroxypentyl)benzoate]		3.50 ± 0.71	3.30 ± 0.48		3.55 ± 0.52	3.00 ± 0.89		3.45 ± 0.52	2.73 ± 0.79		6.16 ± 2.46	16.87		5.73 ± 2.20	27.83	5.37 ± 2.00	29.43		0	0.2	wt % decomposed product ([6]; 2 hr): 0.36 wt %; wt % decomposed product ([6]; 4 hr): 0.75 wt %; wt % decomposed product ([6]; 16 hr): 4.5 wt %; wt % decomposed product ([6]; 24 hr): 5.3 wt %; decomposition after absorbing moisture (in words) [7]: highly decomposed
CCCCC(=O)c1ccccc1C(=O)[O-].[K+] [Potassium 2-(α-n-pentanonyl)benzoate, potassium 2-(α-n-pentanonyl)benzoate]	no decomposed product	3.27 ± 0.79	2.91 ± 0.70		3.36 ± 0.67	2.82 ± 0.75		3.20 ± 0.63	2.10 ± 0.32***^,s		5.63 ± 1.52	24.02	significantly reduced	5.09 ± 2.04	35.89	4.38 ± 1.54	42.44	no decomposed product	0	0	Dry-weight of thrombus ([1]; 50 mg/kg by gavage): 38.3 ± 15.4 mg; Wet-weight of thrombus ([1]; 50 mg/kg by gavage): 208.8 ± 45.3 mg; Inhibition (%) of dry-weight of thrombus ([1]; 50 mg/kg by gavage): 25.34%; Inhibition (%) of wet-weight of thrombus ([1]; 50 mg/kg by gavage): 19.44%; Dry-weight of thrombus ([1]; 100 mg/kg by gavage): 35.6 ± 14.0 mg; Wet-weight of thrombus ([1]; 100 mg/kg by gavage): 192.6 ± 41.2 mg; Inhibition (%) of dry-weight of thrombus ([1]; 100 mg/kg by gavage): 30.60%; Inhibition (%) of wet-weight of thrombus ([1]; 100 mg/kg by gavage): 25.69%; Dry-weight of thrombus ([1]; 200 mg/kg by gavage): 28.3 ± 16.3 mg; Wet-weight of thrombus ([1]; 200 mg/kg by gavage): 157.0 ± 51.4 mg; Inhibition (%) of dry-weight of thrombus ([1]; 200 mg/kg by gavage): 44.83%; Inhibition (%) of wet-weight of thrombus ([1]; 200 mg/kg by gavage): 39.43%; decomposed product detected (in words) [6]: no decomposed product; wt % decomposed product ([6]; 2 hr): 0 wt %; wt % decomposed product ([6]; 4 hr): 0 wt %; wt % decomposed product ([6]; 16 hr): 0 wt %; wt % decomposed product ([6]; 24 hr): 0 wt %
CCCCC(=O)c1ccccc1C(=O)[O-].[Na+] [Sodium 2-(α-n-pentanonyl)benzoate, sodium 2-(α-n-pentanonyl)benzoate]	no decomposed product												significantly reduced					no decomposed product	0	0	decomposed product detected (in words) [6]: no decomposed product; wt % decomposed product ([6]; 2 hr): 0 wt %; wt % decomposed product ([6]; 4 hr): 0 wt %; wt % decomposed product ([6]; 16 hr): 0 wt %; wt % decomposed product ([6]; 24 hr): 0 wt %
Calcium 2-(α-hydroxypentyl)benzoate		3.45 ± 0.52	3.36 ± 0.50	7.69	3.55 ± 0.52	3.09 ± 0.70	17.16	3.45 ± 0.52	2.91 ± 0.54	21.98	6.39 ± 2.33	13.77		5.82 ± 1.90	26.70	5.41 ± 1.77	28.91				
N,N′-dibenzylethylenediamine 2-(α-hydroxypentyl)benzoate		3.45 ± 0.52	3.09 ± 0.54	15.11	3.45 ± 0.52	2.91 ± 0.70	21.98	3.36 ± 0.67	2.82 ± 0.87	24.40	5.85 ± 2.32	21.05		5.50 ± 1.82	30.73	5.09 ± 2.14	33.11				alleviation on neural symptoms at 24 hours after the operation (in words) ([3]; 50 mg/kg, vs. model group, P<0.01 or P<0.05): significantly alleviation
